The source of these data is patent publication US20160194359A1, “CELL-REACTIVE, LONG-ACTING, OR TARGETED COMPSTATIN ANALOGS AND RELATED COMPOSITIONS AND METHODS” (APELLIS PHARMACEUTICALS, INC., priority 2012, published 2016).

Non-standard residues stand in square brackets, D forms with d. Trp(6-F) = N[C@@H](Cc1c[nH]c2cc(F)ccc12)C(=O)O; Bpa = N[C@@H](Cc1ccc(C(=O)c2ccccc2)cc1)C(=O)O; 1Nal = N[C@@H](Cc1cccc2ccccc12)C(=O)O; 2Nal = N[C@@H](Cc1ccc2ccccc2c1)C(=O)O

One data set deals with complement activation. The following applies: relative to compstatin amidated at the C-terminus; published data; cited from earlier work.
Data set [1] is described as follows: previous study of CA28 administered intravenously (historical data). It counts as in vivo, Cynomolgus monkeys. The following applies: for Serum concentration: CA28 (IV) 200 mg/kg, unit not in table. An excerpt: Average values and standard deviations are readily calculated. There was notable consistency between animals.
The data points represent all PEGylated CA28 compound detected.

The target in data set [2] is T1, complement component C3 (human) (human, UniProt P01024 23-1663). In words: cell-based or functional assay.
The target in data set [3] is T1, complement component C3 (human). In words: cell-based or functional assay. The source holds these as a separate data set.
For data set [4] the target is unchanged. In words: cell-based or functional assay. This is another data set of the same source.

Consider Ac-ICVYQDWGAHRCT-CONH2 [Ac-V4Y/H9A], for which, in the data set on complement activation, the Activity over compstatin is given as 14 × more.

Take “Ac-ICV(2-IgI)QDWGAHRCT-COOH (Ac-ICV[2‑IgI]QDWGAHRCT-OH; cysteine pairing not given here) [Ac-V42IgI/H9A-OH]”: the Activity over compstatin with complement activation is reported as 37 × more.

Turning to “Ac-ICV(2-Nal)QDWGAHRCT-CONH2 (Ac-ICV[2Nal]QDWGAHRCT-NH2; cysteine pairing not given here) [Ac-V4(2-Nal)/H9A]”, the Activity over compstatin with complement activation is listed as 99 × more.

Turning to “Ac-ICVWQDWGAHRCdT-COOH [Ac-V4W/H9A/T13dT-OH]”, the Activity over compstatin in the data set on complement activation is given as 55 × more.

Take “Ac-ICV(2-IgI)QDWGAHRCT-CONH2 (Ac-ICV[2‑IgI]QDWGAHRCT-NH2; cysteine pairing not given here) [Ac-V42IgI/H9A]”: the Activity over compstatin in the data set on complement activation is on record as 39 × more.

On to “H-GICV(6fW)QD(6fW)GAHRCTN-COON (H-GICV[Trp(6-F)]QD[Trp(6-F)]GAHRCTN-OH; not fully specified (bridges); cysteine pairing not given here) [+G/V4(6fW)/W7(6fW)H9A+N-OH]”, for which the Activity over compstatin in the data set on complement activation was 126 × more.

For the molecule “Ac-ICV(1-Nal)QDWGAHRCT-COOH (Ac-ICV[1Nal]QDWGAHRCT-OH; cysteine pairing not given here) [Ac V4(1-Nal)/H9A-OH]”, in the data set with complement activation, the Activity over compstatin was 30 × more.

Consider Ac-ICVWQDWGAHRCT-CONH2 [Ac-V4W/H9A], for which the Activity over compstatin in the data set on complement activation is 45 × more.

As for “Ac-ICV(Bpa)QDWGAHRCT-CONH2 (Ac-ICV[Bpa]QDWGAHRCT-NH2; not fully specified (bridges); printed as Ac-ICV(Bpa)QDWGAHRCT-CONH2; cysteine pairing not given here) [Ac-V4(Bpa)/H9A]”, the Activity over compstatin with complement activation is 86 × more.

Regarding “Ac-ICVWQD(5fW)GAHRCT-CONH2 [Ac-V4W/W7(5fW)/H9A]”, the Activity over compstatin with complement activation is 121 × more.

In the case of “Ac-ICVDhtQDWGAHRCT-COOH [Ac-V4Dht/H9A-OH]”, the Activity over compstatin in the data set on complement activation was 5 × more.

With “Ac-ICV(5fW)QDWGAHRCT-CONH2 [Ac-V4(5fW)/H9A]”, the Activity over compstatin in the data set on complement activation was 31 × more.

For Ac-ICVVQDWGHHRCT-CONH2 [Ac-compstatin], the Activity over compstatin with complement activation is given as 3 × more.

In the case of “Ac-ICV(2-Nal)QDWGAHRCT-COOH (Ac-ICV[2Nal]QDWGAHRCT-OH; cysteine pairing not given here) [Ac V4(2-Nal)/H9A-OH]”, the Activity over compstatin in the data set on complement activation is recorded as 38 × more.

In the case of “Ac-ICV(5-methyl-W)QDWGAHRCT-CONH2 [Ac-V4(5-MeW)/H9A]”, the Activity over compstatin in the data set on complement activation is listed as 67 × more.

As for “Ac-ICV(Bpa)QDWGAHRCT-COOH (Ac-ICV[Bpa]QDWGAHRCT-OH; not fully specified (bridges); printed as Ac-ICV(Bpa)QDWGAHRCT-COOH; cysteine pairing not given here) [Ac-V4(Bpa)/H9A-OH]”, the Activity over compstatin in the data set on complement activation is listed as 49 × more.

As for `CC[C@H](C)[C@H](NC(C)=O)C(=O)N[C@H]1CSSC[C@@H](C(=O)N[C@H](C(N)=O)[C@@H](C)O)NC(=O)[C@H](CCCNC(=N)N)NC(=O)[C@H](Cc2cnc[nH]2)NC(=O)[C@H](C)NC(=O)CNC(=O)[C@H](Cc2c[nH]c3ccccc23)NC(=O)[C@H](CC(=O)O)NC(=O)[C@H](CCC(N)=O)NC(=O)[C@H](Cc2cn(C)c3ccccc23)NC(=O)[C@H](C(C)C)NC1=O` [CA28], the Serum concentration in data set [1] (time 0.02 days, historical data) is given as 34; in data set [1] (time 0.042 days, historical data), 17; in data set [1] (time 0.167 days, historical data), 9; in data set [1] (time 0.333 days, historical data), 5; in data set [1] (time 1 day, historical data) it was 1.5. In data set [1] (cynomolgus monkey, serum, iv, 200 mg/kg, read-out: Serum Concentration), the level at 4.008 h was 9000 ng/mL. Besides, the level at 0.48 h in data set [1] (cynomolgus monkey, serum, IV 200 mg/kg, time 0.02 days, historical data, HPLC, read-out: Serum Concentration) stood at 34000 ng/mL. Also, the level at 1.008 h in data set [1] (cynomolgus monkey, serum, IV 200 mg/kg, time 0.042 days, historical data, HPLC, read-out: Serum Concentration) was determined as 17000 ng/mL. Besides, the level at 7.992 h in data set [1] (cynomolgus monkey, serum, IV 200 mg/kg, time 0.333 days, historical data, HPLC, read-out: Serum Concentration) was 5000 ng/mL. The level at 24 h in data set [1] (cynomolgus monkey, serum, IV 200 mg/kg, time 1 day, historical data, HPLC, read-out: Serum Concentration) was found to be 1500 ng/mL.

B1: CA28-2GS-BF (bifunctionalized PEG-based compstatin analog, GS type) (peptide)
peptide: ICVWQDWGAHRCTK
modifications: N-terminal acetyl; 1-methyl-tryptophan at position 4; disulfide Cys2-Cys12; AEEAc linker after Thr13; Lys side chain coupled to one end of a bifunctional linear 40 kD PEG (glutaryl, GS type); C-terminal amide
Turning to B1, in data set [2], the “% Parent in Q1 (Type III cells with high C3d deposition); modified Ham's assay, 50 ug/ml” value came out at 0.01%; the “% Parent in Q2 (Type I and II cells with high C3d deposition); modified Ham's assay, 50 ug/ml” value is 0.01%; the “% Parent in Q3 (Type III cells without significant C3d deposition); modified Ham's assay, 50 ug/ml” value was 61.5%; the “% Parent in Q4 (Type I and II cells without significant C3d deposition); modified Ham's assay, 50 ug/ml” value is 38.5%.

B2: CA28-AEEAc-Lys(mPEG40K-carbonyl) (peptide)
peptide: ICVWQDWGAHRCTK
modifications: not fully specified; N-terminal acetyl; 1-methyl-tryptophan at position 4; disulfide Cys2-Cys12; AEEAc linker after Thr13; linear 40 kD mPEG (NOF ME-400TS, carbonyl) on the Lys side chain; C-terminal amide
With B2, the “IC50 (read off the curve); classical pathway complement activation (C3b deposition ELISA, human plasma)” value (from here on “IC50 (read off the curve)”) in data set [3] is approximately 700 nM.

B3: CA28-AEEAc-Lys(mPEG40K-hexanoyl) (peptide)
peptide: ICVWQDWGAHRCTK
modifications: N-terminal acetyl; 1-methyl-tryptophan at position 4; disulfide Cys2-Cys12; AEEAc linker after Thr13; linear 40 kD mPEG (NOF ME-400HS, hexanoyl) on the Lys side chain; C-terminal amide
In the case of B3, the “IC50 (read off the curve)” value in data set [3] was approximately 700 nM.

B4: CA28-AEEAc-Lys-(PEG30k) (peptide)
peptide: ICVWQDWGAHRCTK
modifications: N-terminal acetyl; 1-methyl-tryptophan at position 4; disulfide Cys2-Cys12; AEEAc (8-amino-3,6-dioxaoctanoyl) linker after Thr13; linear 30 kD mPEG (NOF ME-300GS) on the Lys side chain; C-terminal amide
With B4, the “IC50, classical complement inhibition assay (C3b deposition ELISA)” value in data set [4] was determined as 1260 nM.

B5: CA28-AEEAc-Lys(mPEG40K-succinyl) (peptide)
peptide: ICVWQDWGAHRCTK
modifications: N-terminal acetyl; 1-methyl-tryptophan at position 4; disulfide Cys2-Cys12; AEEAc linker after Thr13; linear 40 kD mPEG (NOF ME-400CS, succinyl) on the Lys side chain; C-terminal amide
As for B5, in data set [3], the “IC50 (read off the curve)” value is approximately 700 nM.

B6: CA28-AEEAc-Lys-(PEG40k) (peptide)
peptide: ICVWQDWGAHRCTK
modifications: N-terminal acetyl; 1-methyl-tryptophan at position 4; disulfide Cys2-Cys12; AEEAc linker after Thr13; linear 40 kD mPEG (NOF ME-400GS, glutaryl) on the Lys side chain; C-terminal amide
Turning to B6, in data set [4], the “IC50, classical complement inhibition assay (C3b deposition ELISA)” value came out at 1290 nM. Moreover, the “IC50 (read off the curve)” value in data set [3] is approximately 700 nM.
